Measured values reported in the NIST ThermoML archive (doi:10.1016/j.tca.2011.08.002).

What was measured:
[1] = xn = mol fraction of the nth substance listed; details: 101 kPa, Liquid, Vibrating tube method
[2] = refractive index (Na D-line) (dimensionless); xn = mol fraction of the nth substance listed; details: 101 kPa, Liquid, Standard Abbe refractometry

C1CCC(NC2CCCCC2)CC1 [N-cyclohexylcyclohexanamine] + CCCCO
Details	mass density, [1] [kg/m3]	refractive index, [2]
288.15 K, x2 = 0	915.498	1.48636
288.15 K, x2 = 0.0512	914.315	1.48502
288.15 K, x2 = 0.1	912.993	1.48368
288.15 K, x2 = 0.2005	909.753	1.48027
288.15 K, x2 = 0.3005	905.695	1.47614
288.15 K, x2 = 0.4005	900.544	1.47121
288.15 K, x2 = 0.5	893.978	1.46517
288.15 K, x2 = 0.6002	885.407	1.45768
288.15 K, x2 = 0.7002	874.118	1.44826
288.15 K, x2 = 0.7984	859.411	1.43656
288.15 K, x2 = 0.8999	839.302	1.42104
288.15 K, x2 = 0.9493	827.33	1.41197
293.15 K, x2 = 0	911.705	1.48416
293.15 K, x2 = 0.0512	910.505	1.4828
293.15 K, x2 = 0.1	909.162	1.48147
293.15 K, x2 = 0.2005	905.869	1.47804
293.15 K, x2 = 0.3005	901.749	1.4739
293.15 K, x2 = 0.4005	896.535	1.46892
293.15 K, x2 = 0.5	889.912	1.46289
293.15 K, x2 = 0.6002	881.306	1.45538
293.15 K, x2 = 0.7002	870.025	1.44587
293.15 K, x2 = 0.7984	855.383	1.43432
293.15 K, x2 = 0.8999	835.393	1.4189
293.15 K, x2 = 0.9493	823.486	1.40987
298.15 K, x2 = 0	907.923	1.48198
298.15 K, x2 = 0.0512	906.698	1.4806
298.15 K, x2 = 0.1	905.333	1.47926
298.15 K, x2 = 0.2005	901.986	1.47579
298.15 K, x2 = 0.3005	897.806	1.47165
298.15 K, x2 = 0.4005	892.53	1.46666
298.15 K, x2 = 0.5	885.853	1.46059
298.15 K, x2 = 0.6002	877.207	1.45309
298.15 K, x2 = 0.7002	865.925	1.44368
298.15 K, x2 = 0.7984	851.344	1.43208
298.15 K, x2 = 0.8999	831.466	1.41673
298.15 K, x2 = 0.9493	819.618	1.40779
303.15 K, x2 = 0	904.144	1.47978
303.15 K, x2 = 0.0512	902.899	1.47842
303.15 K, x2 = 0.1	901.51	1.47704
303.15 K, x2 = 0.2005	898.104	1.47358
303.15 K, x2 = 0.3005	893.865	1.46939
303.15 K, x2 = 0.4005	888.526	1.4644
303.15 K, x2 = 0.5	881.79	1.45831
303.15 K, x2 = 0.6002	873.106	1.4508
303.15 K, x2 = 0.7002	861.822	1.44139
303.15 K, x2 = 0.7984	847.289	1.42985
303.15 K, x2 = 0.8999	827.516	1.4146
303.15 K, x2 = 0.9493	815.728	1.40565
308.15 K, x2 = 0	900.372	1.47761
308.15 K, x2 = 0.0512	899.101	1.47623
308.15 K, x2 = 0.1	897.686	1.47485
308.15 K, x2 = 0.2005	894.222	1.47136
308.15 K, x2 = 0.3005	889.919	1.46716
308.15 K, x2 = 0.4005	884.519	1.46213
308.15 K, x2 = 0.5	877.726	1.45604
308.15 K, x2 = 0.6002	868.997	1.44852
308.15 K, x2 = 0.7002	857.708	1.43914
308.15 K, x2 = 0.7984	843.219	1.42763
308.15 K, x2 = 0.8999	823.538	1.41241
308.15 K, x2 = 0.9493	811.807	1.40352
313.15 K, x2 = 0	896.608	1.47562
313.15 K, x2 = 0.0512	895.307	1.47419
313.15 K, x2 = 0.1	893.863	1.47267
313.15 K, x2 = 0.2005	890.338	1.4691
313.15 K, x2 = 0.3005	885.971	1.46487
313.15 K, x2 = 0.4005	880.507	1.45979
313.15 K, x2 = 0.5	873.654	1.45368
313.15 K, x2 = 0.6002	864.881	1.44613
313.15 K, x2 = 0.7002	853.579	1.43676
313.15 K, x2 = 0.7984	839.126	1.42522
313.15 K, x2 = 0.8999	819.533	1.41016
313.15 K, x2 = 0.9493	807.851	1.40134
318.15 K, x2 = 0	892.847	1.47347
318.15 K, x2 = 0.0512	891.512	1.472
318.15 K, x2 = 0.1	890.04	1.47049
318.15 K, x2 = 0.2005	886.452	1.46689
318.15 K, x2 = 0.3005	882.018	1.46265
318.15 K, x2 = 0.4005	876.487	1.45753
318.15 K, x2 = 0.5	869.572	1.4514
318.15 K, x2 = 0.6002	860.75	1.44384
318.15 K, x2 = 0.7002	849.434	1.43447
318.15 K, x2 = 0.7984	835.005	1.42299
318.15 K, x2 = 0.8999	815.488	1.40798
318.15 K, x2 = 0.9493	803.854	1.39919
323.15 K, x2 = 0	889.089	1.47134
323.15 K, x2 = 0.0512	887.718	1.46985
323.15 K, x2 = 0.1	886.213	1.46835
323.15 K, x2 = 0.2005	882.559	1.46474
323.15 K, x2 = 0.3005	878.053	1.46049
323.15 K, x2 = 0.4005	872.455	1.45537
323.15 K, x2 = 0.5	865.476	1.4492
323.15 K, x2 = 0.6002	856.603	1.44162
323.15 K, x2 = 0.7002	845.267	1.43225
323.15 K, x2 = 0.7984	830.854	1.42074
323.15 K, x2 = 0.8999	811.404	1.40571
323.15 K, x2 = 0.9493	799.814	1.39701
